Measured values taken from paper PMC7982526, “Discovery of New α-Glucosidase Inhibitors: Structure-Based Virtual Screening and Biological Evaluation” (Frontiers in Chemistry, 2021).

Experiments:
[1] = biological target: T1, α-Glucosidase (Sigma, G5003) derived from baker's yeast (Saccharomyces cerevisiae, UniProt P53341); assay: biochemical; assay type: biochemical; settings: for inhibition ratio against α-glycosidase: at 100 μM; for IC50: mean ± SD of three independent experiments, six concentrations, 37°C, pH 6.8, read-out: IC50 against α-glycosidase
T1 construct: purchased Sigma-Aldrich G5003
T1 sequence (P53341 whole entry): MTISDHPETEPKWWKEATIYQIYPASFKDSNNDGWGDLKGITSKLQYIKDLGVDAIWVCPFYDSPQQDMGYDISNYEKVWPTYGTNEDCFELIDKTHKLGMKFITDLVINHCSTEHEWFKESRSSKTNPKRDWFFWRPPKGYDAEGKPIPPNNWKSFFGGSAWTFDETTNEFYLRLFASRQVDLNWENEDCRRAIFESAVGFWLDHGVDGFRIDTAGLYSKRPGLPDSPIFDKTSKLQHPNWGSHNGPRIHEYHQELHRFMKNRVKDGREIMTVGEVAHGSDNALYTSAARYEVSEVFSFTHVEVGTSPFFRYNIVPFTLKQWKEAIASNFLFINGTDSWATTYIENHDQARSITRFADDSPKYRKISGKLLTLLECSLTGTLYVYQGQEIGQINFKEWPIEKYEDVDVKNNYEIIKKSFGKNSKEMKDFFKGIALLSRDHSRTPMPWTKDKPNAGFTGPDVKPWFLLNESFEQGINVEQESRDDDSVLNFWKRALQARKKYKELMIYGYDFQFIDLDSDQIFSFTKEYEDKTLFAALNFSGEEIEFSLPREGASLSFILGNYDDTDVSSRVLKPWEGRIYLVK
Procedure: The α-glucosidase inhibitory evaluation of the purchased 52 compounds was performed according to the previously described protocol ([Tang et al., 2014]; [Ye et al., 2019]). α-Glucosidase (Sigma, G5003) derived from baker’s yeast, and pNPG (Sigma, N1377) and the substrate were both purchased from Sigma-Aldrich. […] The compounds and α-glucosidase were preincubated in phosphate buffer (37°C, 15 min). Then, 25 μL substrate buffer was added to the system to start the reaction, and the incubation was continued at 37°C for 15 min. Finally, the reaction was terminated by the addition of 50 μL 0.2 M reaction termination solution. The optical density (OD) was measured at an absorbance wavelength of 405 nm using a microplate reader (Tecan, Switzerland). The IC50 values were estimated with six different concentrations, and each sample was measured three times in parallel experiments.

α-glucosidase [2] = biological target: T2, α-glucosidase (Saccharomyces cerevisiae, UniProt P53341); assay: Kinetic assay, Lineweaver-Burk plot analysis; assay type: biochemical; settings: for inhibition type: Lineweaver-Burk plot analysis; for Ki: Lineweaver-Burk plot, substrate pNPG, secondary plot of slopes, read-out: estimated Ki
T2 construct: purchased Sigma-Aldrich G5003
T2 sequence (P53341 whole entry): as above
Procedure: The inhibition type of the inhibitors against α-glucosidase activities was evaluated based on a described method ([Hou et al., 2009]). Increasing concentrations of substrates pNPG were used in the absence or presence of tested compounds at four different concentrations around the IC50 values. The inhibitory kinetics of the investigated compounds on α-glucosidase was analyzed using the Lineweaver–Burk plot of the substrate concentration and velocity.

[3] = Cell viability assay (MTT); assay type: cell-based; settings: human, LO2 cells (normal hepatocyte cell line), 48 h treatment, read-out: IC50 toward LO2 cells (cytotoxicity)
Procedure: The LO2 cell line was cultured in a proper medium supplemented with 10% fetal bovine serum in a humidified atmosphere of 5% CO2 at 37°C. Cell suspensions were plated in 96-well plates at a density of 2 × 10^4 […]. Compounds were solubilized in DMSO at six different concentrations. After incubation for 24 h, the cells were treated with various concentrations of tested substances for 48 h and then incubated with 100 μL of MTT at 37°C for 2 h. The formazan dye product was measured by the absorbance at 490 nm on a Tecan Spark multimode microplate reader (Switzerland).

α-glucosidase [4] = biological target: T2, α-glucosidase; assay: Fluorescence quenching experiment; assay type: binding, baker's yeast; settings: increasing concentration of compound, 30 min, 37°C, excitation 290 nm
Procedure: According to the previously reported method ([Aguilar-Moncayo et al., 2010]), all fluorescence spectra were measured on a fluorescence spectrophotometer (Agilent Cary Eclipse) equipped with a 10.0-mm quartz cell and a thermostat bath. In the fluorescence spectrophotometer, α-glucosidase (1 U/ml) was pretreated with certain concentrations of inhibitors for 30 min at 37°C. 100 μL of the above solution (pH 6.8) was added accurately to the quartz cell. The blank was used for buffer spectrum values. The fluorescence emission spectra were measured at 37°C. The excitation wavelength was 290 nm, and the emission spectrum was recorded from 320 to 500 nm.

SMILES | inhibition ratio against α-glycosidase [1] | IC50 [1] | inhibition type (α-glucosidase [2]) | Ki (α-glucosidase [2]) | IC50 at 48 h [3] | fluorescence quenching of α-glycosidase (α-glucosidase [4])
Cc1cccc(-c2cc3ncn(CC(=O)NC(=O)Nc4ccccc4)c(=O)c3s2)c1 [compound 7] | above 50% | 17.4 ± 1.32 µM | noncompetitive | 24.2 µM | > 100 µM | gradually quenched in a type of concentration-dependent manner
CSc1nc(N)nc(SCC(=O)c2ccc3c(c2)OCO3)c1C#N [compound 22] | above 50% | 35.2 ± 2.14 µM | noncompetitive | 11.3 µM | > 100 µM | gradually quenched in a type of concentration-dependent manner
O=C(Nc1ccccc1C(=O)NCc1ccco1)c1ccc(F)cc1 [compound 37] | above 50% | 31.3 ± 3.11 µM | noncompetitive | 11.3 µM | > 100 µM | gradually quenched in a type of concentration-dependent manner
COc1ccc(-c2c(C#N)c(SCc3nc4ccccc4[nH]3)nc(C)c2C(C)=O)cc1 [compound 44] | above 50% | 9.99 ± 0.43 µM | noncompetitive | 15.4 µM | > 100 µM | gradually quenched in a type of concentration-dependent manner
